Here are results for two compounds from ChEMBL document CHEMBL1152045, “Synthesis of the pyrimidine analog of 4,5,6,7-tetrahydroimidazo[4,5,1-jk][1,4]benzodiazepin-2(1H)one (TIBO) potential for HIV-1 inhibition” (Bioorg Med Chem Lett, 1991).

Each structure is given as a SMILES string. pIC50: −log10 of the molar value.

The test system of assay [1] is MT4. The assay can be described thus: Compound was tested for its anti HIV-1 activity in MT-4 cells up to 2 uM concentration; No activity against HIV-l virus replication. In kind it is functional, cell-based, Homo sapiens.
Assay [2] relates to MT4. As to the kind of experiment: Compound was tested for its anti HIV-1 activity in MT-4 cells. In kind it is functional, cell-based. The conditions noted are these: Homo sapiens.

`CC(C)=CCN1Cc2ncnc3nc(O)n(c23)CC1C` (configuration not stated): the IC50 entry in assay [1] is “Not Active”. On to `CC(C)=CCN1Cc2cc(Cl)cc3[nH]c(=S)n(c23)C[C@@H]1C`, for which the pIC50 in assay [2] is 7.38.
